Here are results for six compounds from publication PMC10821019, “F16 Hybrids Derived from Steviol or Isosteviol Are Accumulated in the Mitochondria of Tumor Cells and Overcome Drug Resistance” (Molecules, 2024).

“And” between values parts separate entries of the source, which are not always exact repeats. Equal entries are not always repeated.

Usually IC50 stands for the concentration that gives 50% inhibition. High values mean weaker potency, low ones greater potency. In general, melting point refers to the temperature of the solid-liquid transition.

Data set [1] deals with MCF7 (breast carcinoma). In words: SRB cytotoxicity assay, MCF7. The data set is classed as cell-based, human. The note with it: mean n = 3, SD 5-10%. An excerpt: (§1) All compounds were screened for their cytotoxic activity and tumor cell selectivity using our standard model, previously described, comprising a selection of human tumor cell lines representing different solid tumor entities and non-malignant human fibroblasts (CCD18Co) including the cell line pair A2780/A2780cis, a well-known model of acquired drug resistance.
(§2) Reagents were bought from commercial suppliers and used without further purification. The solvents were dried according to the usual procedures. TLC was performed on silica gel (Macherey-Nagel, detection with UV absorption; Macherey-Nagel, Düren, Germany). […] Numbering in the NMR spectra: 1–20 (diterpene core), 21–24 for O-(CH2)n-N fragment followed by the pyridinium ring, the ethenyl moiety and the indole moiety. […] IR spectra were recorded on a Perkin-Elmer Spectrum Two (UATR Two Unit, Perkin-Elmer GmbH, Rodgau, Germany). […] Both media were supplemented with 10% fetal bovine serum (Biowest, Nuaillé, France) and 1% penicillin-streptomycin (Sigma-Aldrich).
(§3) Cytotoxic activities of compounds were analyzed using the SRB cytotoxicity assay. Cells were seeded in 96-well plates and after 24 h were treated with serial dilutions of compounds for 72 h. All subsequent steps were performed according to the previously described SRB assay protocol. Dose–response curves and calculation of IC50 values, including standard deviations, were carried out using GraphPad Prism8.

The subject of data set [2] is A2780 (ovarian carcinoma). In words: SRB cytotoxicity assay, A2780. The data set is classed as cell-based, human. The note with it: for selectivity index 1 (SI 1): CCD18Co/A2780; for IC50: SRB assay, 72 h treatment, mean n = 3, SD 5-10%; for tumor cell selectivity, in words: tumor cells vs non-malignant fibroblasts CCD18Co.
Description: as §1, §2, §3
(The SRB assay estimates cell density from bound dye.)

Data set [3] concerns A549 (lung carcinoma). The data set can be described thus: SRB cytotoxicity assay, A549. The data set is classed as cell-based, human. The following applies: for selectivity index 2 (SI 2): CCD18Co/A549; for IC50: SRB assay, 72 h treatment, mean n = 3, SD 5-10%.
Description: as §1, §2, §3

Data set [4] has as its system A2780cis (resistant derivative of A2780). The data set can be described thus: SRB cytotoxicity assay, A2780cis. The data set is classed as cell-based, human. The note with it: for IC50: SRB assay, 72 h treatment, mean n = 3, SD 5-10%; for resistance index (RI): quotient IC50 values A2780cis/A2780; for drug resistance in the A2780/A2780cis model, in words: A2780cis vs A2780.
Description: as §1, §2, §3

Data set [5] can be described thus: SRB cytotoxicity assay, CCD18Co. The note with it: human, CCD18Co non-malignant fibroblasts, 72 h treatment, mean n = 3, SD 5-10%. The data set is classed as cell-based, human.
Description: as §1, §2, §3

Data set [6] concerns HT29 (colorectal carcinoma). The data set can be described thus: SRB cytotoxicity assay, HT29. The data set is classed as cell-based, human. The note with it: mean n = 3, SD 5-10%.
Description: as §1, §2, §3

Data set [7] deals with A549 cells. The data set can be described thus: Subcellular localization, live cell fluorescence imaging with AHCS2 and Hoechst 33342. The data set is classed as cell-based, human. The note with it: 24 h, 10 µM of 5 or 1 µM of 17 or 25, together with 20 nM AHCS2, Hoechst 33342. An excerpt:
Next, the subcellular accumulation of compounds 17 and 25 compared to 5 (F16 group) was studied, employing the fluorescent characteristics mediated by the F16 group. Expecting a mitochondrial accumulation of the compounds, our previously described strong mitochondria-targeted and NIR fluorescent agent/mitocan AHCS2 (compound 21 in ref. [4]) was used, thus enabling simultaneous analysis and direct comparison due to different fluorescence spectra.
Analysis of subcellular localization of compounds was performed in A549 cells using the established mitochondrial targeting compound AHCS2 [4] for direct comparison. For all procedures, RPMI 1640 media without phenol-red (Pan-Biotech GmbH, Aidenbach, Germany) was used. Cells were seeded in a µ-Plate 96-well black plate (ibiTreat: #1.5 polymer coverslip bottom, ibidi GmbH, Gräfelfing, Germany) at a cell density of 30.000 per well. After 24 h, cells were treated with 10 µM of compound 5 or 1 µM of compound 17 or 1 µM of compound 25, each together with 20 nM of compound AHCS2. After 24 h, Hoechst 33342 (Sigma-Aldrich) was added and live cell imaging was performed on an Axio Observer 7 (Carl Zeiss Microscopy Deutschland GmbH, Oberkochen, Germany) using the settings for Ex/Em, as follows: Hoechst 33342 (385 nm/425 nm), F16 compounds (475 nm/514 nm), AHCS2 (735 nm/785 nm). For simultaneous analysis, multiple Z-stacked images were taken and resulting pictures were reconstructed using the ZEN 3.5 pro software (Zeiss).

Data set [8] concerns CCD18Co (non-malignant human fibroblasts). In words: SRB cytotoxicity assay, CCD18Co. The data set is classed as cell-based. The note with it: 72 h treatment, mean n = 3, SD 5-10%.
Description: as §1, §2, §3

[9] abbreviates: Homo sapiens, MCF7, 72 h treatment.
[10] abbreviates: Homo sapiens, HT-29, 72 h treatment.

Consider `C(=C\c1c[nH]c2ccccc12)/c1cccnc1` [Compound 4, 3-[(E)-2-Pyridin-3-yl-ethenyl]-1H-indole], for which the IC50 in [1] (setting [9]) came out at 5180 nM; in data set [2] (Homo sapiens, A2780), 1170 nM; in data set [3] (Homo sapiens, A549), 16400 nM; in data set [4] (Homo sapiens, A2780cis), 21000 nM; in [6] (setting [10]), 7830 nM. In [2], the “selectivity index 1 (SI 1)” value is 77.40. For the same compound, the “selectivity index 2 (SI 2)” value in data set [3] turned out to be 5.50. The “resistance index (RI)” value in data set [4] worked out at 17.97. For the same compound, the IC50 at 72 h in data set [5] is 90300 nM.

Consider `CC12CCC3C(CCC4C(C)(C(=O)OCCC[n+]5ccc(C=Cc6c[nH]c7ccccc67)cc5)CCCC34C)(CC1=O)C2.[Br-]` (stereo not drawn) [Compound 17, 3-{4-[(E)-2-(1H-Indol-3-yl)ethenyl]-pyridinium-1-yl}-propyl (4α, 8β, 13β) 13-Methyl-16-oxo-17-norkauran-18-oate Bromide], for which, in [1] (72 h treatment), it took 590 nM to reach half-maximal inhibition (IC50). Moreover, in [2], the “selectivity index 1 (SI 1)” value is reported as 71.25; the concentration for half-maximal inhibition (IC50) came out at 280 nM; the “tumor cell selectivity, in words” value is listed as “retained selectivity”. Besides, in data set [3], the “selectivity index 2 (SI 2)” value came to 5.88 and the half-inhibitory concentration (IC50) came out at 3390 nM. In data set [4], the “drug resistance in the A2780/A2780cis model, in words” value is “able to reduce or even overcome drug resistance”; the IC50 amounted to 300 nM; the “resistance index (RI)” value was determined as 1.07. Besides, the subcellular accumulation entry in data set [7] is listed as “preferential mitochondrial localization”. The compound further had an IC50 in [8] of 19900 nM. Besides, the IC50 in data set [6] (72 h treatment) is 760 nM.

As to `CC12CCC3C(CCC4C(C)(C(=O)OCCCC[n+]5ccc(C=Cc6c[nH]c7ccccc67)cc5)CCCC34C)(CC1=O)C2.[Br-]` (stereo not drawn) [Compound 25, 4-{4[(E)-2-(1H-Indol-3-yl)ethenyl]-pyridinium-1-yl}butyl (4α, 8β, 13β) 13-Methyl-16-oxo-17-norkauran-18-oate Bromide], in [1] (72 h treatment), the midpoint of inhibition, the IC50, lay at 490 nM. Besides, in data set [2], the “selectivity index 1 (SI 1)” value was 59 and 59.32; half-maximal inhibition (IC50) was put at 180 nM; the “tumor cell selectivity, in words” value is “retained selectivity”. In data set [3], the “selectivity index 2 (SI 2)” value amounted to 4.14 and the half-inhibitory concentration (IC50) stood at 2620 nM. In [4], the “drug resistance in the A2780/A2780cis model, in words” value is “able to reduce or even overcome drug resistance”; the IC50 stood at 310 nM; the “resistance index (RI)” value stood at 1.70. Also, in [7], the subcellular accumulation result is listed as “preferential mitochondrial localization”. This compound also showed an IC50 in [8] of 10800 nM. Further, half-maximal inhibition in data set [6] (72 h treatment) (IC50) required 880 nM.

With `COc1cccc2c1C(=O)c1c(O)c3c(c(O)c1C2=O)C[C@@](O)(C(=O)CO)C[C@@H]3O[C@H]1C[C@H](N)[C@H](O)[C@H](C)O1` [DOX, doxorubicin, reference compound], the IC50 amounted to 83 nM in [1] (setting [9]); 7 nM in [2] (Homo sapiens, A2780); 17 nM in [3] (Homo sapiens, A549); 109 nM in data set [4] (Homo sapiens, A2780cis); 98 nM in data set [6] (setting [10]). For the same compound, the “selectivity index 1 (SI 1)” value in data set [2] is recorded as 32.7. Moreover, the “selectivity index 2 (SI 2)” value in data set [3] is reported as 13.9. Further, the “resistance index (RI)” value is reported as 14.7 in data set [4] and “approximately 14” in data set [4] (listed as doxorubicin). This compound displayed an IC50 at 72 h in [5] of 242 nM.

Compound `C(=C\c1c[nH]c2ccccc12)/c1ccccn1` [Compound 3, 3-[(E)-2-Pyridin-2-yl-ethenyl]-1H-indole] showed a melting point of 185 to 187 °C. Further, in data set [1] (setting [9]), the concentration for half-maximal inhibition (IC50) worked out at 1120 nM. For the same compound, the “selectivity index 1 (SI 1)” value in data set [2] stood at 73.27. In addition, half-maximal inhibition in data set [2] (Homo sapiens, A2780) (IC50) was put at 1190 nM. In data set [3], the “selectivity index 2 (SI 2)” value is reported as 3.33. Moreover, the 50% inhibitory concentration (IC50) in [3] (Homo sapiens, A549) amounted to 26300 nM. Besides, it took 39200 nM to reach half-maximal inhibition in data set [4] (Homo sapiens, A2780cis) (IC50). Also, the “resistance index (RI)” value in [4] is 32.88. The compound further had a 50% inhibitory concentration (IC50) at 72 h in data set [5] of 87400 nM. The 50% inhibitory concentration (IC50) in data set [6] (setting [10]) stood at 28700 nM.

As for `C(=C\c1c[nH]c2ccccc12)/c1ccncc1` [Compound 5, 3-[(E)-2-Pyridin-4-yl-ethenyl]-1H-indole], the melting point was 254 to 255 °C. Also, 10900 nM corresponded to half-maximal inhibition in [1] (setting [9]) (IC50). For the same compound, the “selectivity index 1 (SI 1)” value in data set [2] is listed as 44.21. In data set [2] (Homo sapiens, A2780), the concentration for half-maximal inhibition (IC50) amounted to 2260 nM. Moreover, the “selectivity index 2 (SI 2)” value in [3] is 6.49. In [3] (Homo sapiens, A549), this compound registered an IC50 of 15400 nM. For the same compound, in [4] (Homo sapiens, A2780cis), 16400 nM corresponded to half-maximal inhibition (IC50). Moreover, the “resistance index (RI)” value in [4] is 7.26. Further, the subcellular accumulation result in data set [7] is “preferential mitochondrial localization”. For the same compound, half-maximal inhibition in data set [5] (IC50 at 72 h) required 100000 nM. Moreover, the IC50 in data set [6] (setting [10]) stood at 16500 nM.
